The record followed here is patent publication US8377934B2, “Use of stilbene derivatives for treatment and prevention of aquatic mold infections” (State of Israel, Ministry of Agriculture & Rural …, priority 2006, dated 2013).

In data set [1] the test system is S. parasitica. Briefly: In vitro susceptibility of S. parasitica in Table 4. The class given is cell-based, Saprolegnia parasitica. As to conditions: for MIC: Saprolegnia parasitica. The procedure: The in vitro susceptibility of Saprolegnia parasitica T-1 and S. parasitica CBS 540.67 to various compounds was determined by the agar-dilution and broth macrodilution methods.
(§1) Two methods were used, each suitable for a different phase of the asexual life cycle of Saprolegnia spp.: i) the broth macrodilution method, for determination of susceptibility of zoospores and cysts; and ii) the agar-dilution method for determination of susceptibility of filamentous hyphae. Each compound was tested three times in each method. Malachite Green was used as positive control.
(§2) This method is a modification of the method used for molds according to EUCAST 7.1 (European Committee on Antibiotic Susceptibility Testing) and CLSI/NCCLS M27-A2 (Clinical Laboratory Standards Institute/National Committee for Clinical Laboratory Standards). For inoculum preparation, S. parasitica isolates were cultured on GP-PS for 7 days with sterile clover seeds at 18° C. Clover seeds (˜20) covered with mycelium were removed and added to 40 ml of RPMI-1640 broth medium (Sigma; prepared according to NCCLS instructions) and incubated at 18° C. for 4-7 days. Cysts and zoospores free from hyphae were collected, and an inoculum of ˜10^3 CFU/ml as measured by hemacytometer counting, was prepared in RPMI. Fluorescent Brightener 28 stock solution was prepared by adding 40% KOH gradually to a 10 mg/ml solution in water, until it was clear, then it was filtered twice through a 0.2 μm cellulose acetate nonpyrogenic sterile filter (Schleicher & Schuell, Dassel, Germany).
Twofold serial dilutions of the resulting stock solutions were set in RPMI-1640 medium in a volume of 0.1 ml. Final drug concentrations in the test tubes ranged from 1×10^4 to 0.01 mg/L. Inoculum of 0.9 ml was added to each of a sterile tube containing 0.1 ml of the serially diluted drug. Two tubes containing drug-free medium and two tubes containing drug-free inoculum were used as controls. The inoculated tubes were incubated at room temperature (15-20° C.) for 24 h. The growth in each tube was then evaluated visually.
This method is a modification of the method presented by Bailey (Bailey, T. A. (1983) Prog. Fish Cult. 45:24-27), and was used for the susceptibility testing of Saprolegnia hyphae. Twofold serial dilutions were prepared in double distillated sterile water with final drug concentrations ranging from 10,000 to 0.01 mg/L in a final volume of 1.0 ml. Melted (56° C.) RPMI-1640 agar medium (Sigma) was prepared according to NCCLS instructions, and then added to each tube containing drug or water control. The mixture was vortexed, and poured into small plates. After agar solidification a small measured piece, taken from a 7-10 day old culture of S. parasitica T-1 on GP-PS medium was placed upside down on each plate. The plates were incubated at room temperature (15-20° C.) for 24 h.

For data set [2], the system named is S. parasitica CBS 540.67. Briefly: Broth macrodilution susceptibility testing (zoospores and cysts). Particulars: S. parasitica CBS 540.67, 24 h, 15-20° C., geometric mean of three tests; for MIC: Saprolegnia parasitica, CBS540, read-out: MIC, Macrodilution. The class given is cell-based, Saprolegnia parasitica. The method, then:
as §1
as §2, with “Clover seeds (˜20) covered with mycelium were removed and added to 40 ml of RPMI-1640 broth medium (Sigma; prepared according to NCCLS instructions) and incubated at 18° C. for 4-7 days.” left out
(§3) Final drug concentrations in the test tubes ranged from 1×10^4 to 0.01 mg/L. Inoculum of 0.9 ml was added to each of a sterile tube containing 0.1 ml of the serially diluted drug. Two tubes containing drug-free medium and two tubes containing drug-free inoculum were used as controls. The inoculated tubes were incubated at room temperature (15-20° C.) for 24 h. The growth in each tube was then evaluated visually.

The test system of data set [3] is S. parasitica T-1. The data set is described as above. Particulars: S. parasitica T-1, 24 h, 15-20° C., geometric mean of three tests; for MIC: Saprolegnia parasitica, read-out: MIC, Macrodilution. The class given is cell-based, Saprolegnia parasitica. The method, then:
as §1
as §2, with “Clover seeds (˜20) covered with mycelium were removed and added to 40 ml of RPMI-1640 broth medium (Sigma; prepared according to NCCLS instructions) and incubated at 18° C. for 4-7 days.” left out
as §3

The subject of data set [4] is tilapia. Briefly: in vivo. The method, then: (§4) LC50 values were determined by static short-term tests as a measure of the relative acute lethal toxicity for tilapia (Standard methods for the evaluation of water and wastewater (1985) 16th ed. American Public Health Association, Washington, D.C. p. 689-819).
(§5) Hybrid tilapia (Oreochromis niloticus X Oreochromis aureus) having an average weight of 20 g, were kept in 100 liter polyethylene tanks at a density of 1 fish per 10 liters, at a constant temperature of 21° C. for three weeks before the initiation of the experiment by addition of a test compound to each tank. […] For the latter experiments, fish were acclimated to the required temperature for three weeks prior to addition of the test compound to the tank. Fish were treated with 5 different concentrations of each test compound, determined according to the MIC values of each compound.
(§6) Mortality of fish was recorded up to 96 h. Water parameters (O2, NH4^+, NO2^−, pH and Cl^−) were monitored throughout the experiment and were maintained within acceptable limits. The presented results are the mean of two separate experiments.

Data set [5] can be described thus: in vivo. As to conditions: hybrid tilapia (Oreochromis niloticus X Oreochromis aureus), in vivo, LC50. The method, then:
as §4, §5, §6

Data set [6] has as its system S. parasitica T-1. Briefly: Agar-dilution susceptibility testing (filamentous hyphae). The class given is cell-based, Saprolegnia parasitica. Particulars: S. parasitica T-1, 24 h, 15-20° C., geometric mean of three tests; for MIC: Saprolegnia parasitica, read-out: MIC, Agar-dilution. The method, then: as §1
Twofold serial dilutions were prepared in double distillated sterile water with final drug concentrations ranging from 10,000 to 0.01 mg/L in a final volume of 1.0 ml. […] The mixture was vortexed, and poured into small plates. After agar solidification a small measured piece, taken from a 7-10 day old culture of S. parasitica T-1 on GP-PS medium was placed upside down on each plate. The plates were incubated at room temperature (15-20° C.) for 24 h.

Data set [7] relates to S. parasitica CBS 540.67. The description is as above. The class given is cell-based, Saprolegnia parasitica. As to conditions: S. parasitica CBS 540.67, 24 h, 15-20° C., geometric mean of three tests; for MIC: Saprolegnia parasitica, CBS540, read-out: MIC, Agar-dilution.
The mark [8] stands for this setting: method and isolate not separated, read-out: MIC.
The mark [9] stands for this setting: Table 4 summary, read-out: Activity in vitro (MIC), value.

In brackets after ≈: the same amount, converted by molar mass. Read-outs that look alike come from different tables or passages of the source. Bounds are passed on as bounds.

For the molecule `O=C([O-])[O-].O=C([O-])[O-].OO.OO.OO.[Na+].[Na+].[Na+].[Na+]` [Sodium percarbonate], the “Activity in vitro (MIC), grade” value in data set [1] (Table 4 summary) was “High”. In addition, the “Activity in vitro (MIC), value” in data set [1] (Table 4 summary) is “(10 mg/L)”. For the same molecule, the “MIC, Macrodilution” value in data set [2] was 2.5 mg/L; in data set [3], 5 mg/L. Besides, the Toxicity entry in data set [4] (Table 4 summary) is reported as “High (in (high = 50 ppm)”.

On to `OO` [Hydrogen peroxide], for which the MIC is no more than 10 µg/mL in data set [1] (setting [8]), 10 µg/mL (≈ 294 µM) in data set [1] (setting [9]), 8 µg/mL (≈ 235 µM) in data set [2] and 10 µg/mL (≈ 294 µM) in data set [3]. The “Activity in vitro (MIC), grade” value in data set [1] (Table 4 summary) is reported as “High”. The Toxicity entry in data set [4] (in vivo) is on record as “Moderate (key: High: high = 50 ppm; Moderate: moderate = 50-200 ppm; Low: low = >1000 ppm)”. The LC50 in data set [5] came out at 75 µg/mL (≈ 2200 µM).

As to `O=S(=O)([O-])c1cc(Nc2nc(Nc3ccccc3)nc(N(CCO)CCO)n2)ccc1C=Cc1ccc(Nc2nc(Nc3ccccc3)nc(N(CCO)CCO)n2)cc1S(=O)(=O)[O-].[Na+].[Na+]` [Fluorescent Brightener 28], the “MIC, Agar-dilution” value in data set [6] and in data set [7] was 5 µg/mL throughout. Moreover, the figures for the “MIC, Macrodilution” value in data set [2] and in data set [3] were 2 mg/L and 1 mg/L, respectively.

For the molecule `[Cl-].[Na+]` [Sodium chloride], the “Activity in vitro (MIC), value” in data set [1] (Table 4 summary) was “Low (30,000 mg/L”. Also, the “MIC, Macrodilution” value in data set [2] and in data set [3] was 30,000 mg/L throughout.

With `CCCCCCCCCCCCOS(=O)(=O)[O-].[Na+]` [SDS, Sodium dodecylsulfate], the MIC in data set [6] amounted to 500 µg/mL; in data set [7], 500 µg/mL; in data set [2] it was 250 µg/mL; in data set [3] it was 100 µg/mL.

On to `CCCCCCCCCCCCCCCC[N+](C)(C)C.[Br-]` [CTAB], for which the entries for the “MIC, Agar-dilution” value in data set [6] and in data set [7] were 10 µg/mL and 50 µg/mL, respectively. The “MIC, Macrodilution” value in data set [2] and in data set [3] was 5 mg/L in each case.

On to `C=CCOC(Cn1ccnc1)c1ccc(Cl)cc1Cl` (stereo not shown) [Enilconazole], for which the MIC worked out at 5 µg/mL (≈ 16.8 µM) in data set [6], 5 µg/mL (≈ 16.8 µM) in data set [7], 1 µg/mL (≈ 3.36 µM) in data set [2] and 1 µg/mL (≈ 3.36 µM) in data set [3].

Regarding Triton X-100, the “MIC, Agar-dilution” value in data set [6] and in data set [7] was 200 µg/mL each time. Also, the “MIC, Macrodilution” value stood at 100 mg/L in data set [2] and 50 mg/L in data set [3].

For the molecule `O=[N+]([O-])C(Br)(CO)CO` [Pyceze ®], the MIC in data set [6] was 100 µg/mL (≈ 500 µM); in data set [7], 200 µg/mL (≈ 1000 µM); in data set [1] (setting [9]), 100 µg/mL (≈ 500 µM); in data set [2], 100 µg/mL (≈ 500 µM); in data set [3] it was 100 µg/mL (≈ 500 µM). The Toxicity entry in data set [4] (Table 4 summary) is “Moderate (moderate = 50-200 ppm)”. The “LC50 values compared with respective MIC values” in data set [4] (tilapia LC50 versus S. parasitica MIC) is on record as “lower, similar or insignificantly different”.

As for `C[C@@H]1[C@H](O)[C@@H](C)/C=C/C=C/C=C/C=C/C=C/C=C/C=C/[C@H](O[C@@H]2O[C@H](C)[C@@H](O)[C@H](N)[C@@H]2O)C[C@@H]2O[C@](O)(C[C@@H](O)C[C@@H](O)[C@H](O)CC[C@@H](O)C[C@@H](O)CC(=O)O[C@H]1C)C[C@H](O)[C@H]2C(=O)O` [Amphotericin B], the “MIC, Agar-dilution” value in data set [6] worked out at 5 µg/mL (≈ 5.41 µM); in data set [7], 2.5 µg/mL (≈ 2.71 µM). In data set [1] (Table 4 summary), the “Activity in vitro (MIC), grade” value is on record as “High”. Also, the “Activity in vitro (MIC), value” in data set [1] (Table 4 summary) is “(0.1-0.5 mg/L)”. Also, the figures for the “MIC, Macrodilution” value in data set [2] and in data set [3] were 0.25 mg/L (≈ 0.271 µM) and 0.5 mg/L (≈ 0.541 µM), respectively. For the same molecule, in data set [4] (Table 4 summary), the Toxicity entry is “Moderate (moderate = 50-200 ppm)”.

As for `C[C@@H]1CC[C@@]2(OC1)O[C@H]1[C@@H](O)[C@H]3[C@@H]4CC[C@H]5C[C@@H](O[C@@H]6O[C@H](CO)[C@H](O[C@@H]7O[C@H](CO)[C@@H](O)[C@H](O[C@@H]8OC[C@@H](O)[C@H](O)[C@H]8O)[C@H]7O[C@@H]7O[C@H](CO)[C@H](O)[C@H](O[C@@H]8O[C@H](CO)[C@@H](O)[C@H](O)[C@H]8O)[C@H]7O)[C@H](O)[C@H]6O)[C@H](O)C[C@]5(C)[C@H]4CC[C@]3(C)[C@H]1[C@@H]2C` [Digitonin], the MIC in data set [6] is 10 µg/mL (≈ 8.13 µM); in data set [7], 20 µg/mL (≈ 16.3 µM); in data set [1] (setting [8]), no more than 10 µg/mL; in data set [2], 2.5 µg/mL (≈ 2.03 µM); in data set [3], 2.5 µg/mL (≈ 2.03 µM).

With Tween ® 80, the “MIC, Agar-dilution” value in data set [6] and in data set [7] was 200 µg/mL in each case. Besides, the “MIC, Macrodilution” value in data set [2] and in data set [3] was 100 mg/L throughout.
